These results are taken from PMC8659148, “Drug Repurposing for Influenza Virus Polymerase Acidic (PA) Endonuclease Inhibitor” (Molecules, 2021).

The target in this assay is mutant PAN-I38T endonuclease (Influenza A virus, UniProt P03433, I38T). Type of assay: biochemical, influenza A type virus (H1N1).
As to `C[C@]12C=CC(=O)N[C@@H]1CC[C@@H]1[C@@H]2CC[C@]2(C)[C@@H](C(=O)Nc3cc(C(F)(F)F)ccc3C(F)(F)F)CC[C@@H]12` [dutasteride], the “inhibition of the endonuclease activity of PAN-I38T (in words)” value is recorded as “no inhibition”. Consider `CS(=O)(=O)c1cccc(C[C@H](NC(=O)c2c(Cl)cc3c(c2Cl)CCN(C(=O)c2ccc4ccoc4c2)C3)C(=O)O)c1` [lifitegrast], for which the “inhibition of the endonuclease activity of PAN-I38T (in words)” value is “inhibitory effect”. As for `O=C1[C@@H]2[C@H]3CC[C@H](C3)[C@@H]2C(=O)N1C[C@@H]1CCCC[C@H]1CN1CCN(c2nsc3ccccc23)CC1` [lurasidone], the entry is “no inhibition”; as for `CO[C@H]1/C=C/O[C@@]2(C)Oc3c(C)c(O)c4c(O)c(c5c(nc6cc(C)ccn65)c4c3C2=O)NC(=O)/C(C)=C\C=C\[C@H](C)[C@H](O)[C@@H](C)[C@@H](O)[C@@H](C)[C@H](OC(C)=O)[C@@H]1C` [rifaximin], “no inhibition”; as for `CC(C)(C)NC(=O)[C@@H]1C[C@@H]2CCCC[C@@H]2CN1C[C@@H](O)[C@H](Cc1ccccc1)NC(=O)[C@H](CC(N)=O)NC(=O)c1ccc2ccccc2n1` [saquinavir], “no inhibition”.
